How the values were obtained:
[1] = cited from earlier work
[2] = Solubility of cisapride and its salt
[3] = extended release, viscous hydrophilic polymers; cited from earlier work

| Compound | effect of food on absorption ([1]; food) | half life ([1]; in vivo) | absorption in distal regions of the gastrointestinal tract ([1]; more distal regions) | solubilisation at pH 6.8 [2] | dissolution rates [3] |
| --- | --- | --- | --- | --- | --- |
| COc1cc(N)c(Cl)cc1C(=O)NC1CCN(CCCOc2ccc(F)cc2)CC1OC (stereo not drawn) [Cisapride] | enhancing effect on the absorption | relatively short half life | significant decrease in absorption | SLS (sodium lauryl sulphate) was required to solubilise | – |
| COc1cc(N)c(Cl)cc1C(=O)NC1CCN(CCCOc2ccc(F)cc2)CC1OC (single isomer, unassigned; (-)) [(-)-cisapride-(L)tartrate] | – | – | – | – | equal dissolution rates |
| COc1cc(N)c(Cl)cc1C(=O)NC1CCN(CCCOc2ccc(F)cc2)CC1OC.O=C(O)C(O)C(O)C(=O)O (single isomer, unassigned; (+)) [(+)-cisapride-(L) tartrate] | – | – | – | – | equal dissolution rates |

— patent publication US6110494A, “Cisapride mini-tablet formulations” (Elan Corporation, plc, priority 1997, dated 2000)
